Measured values published in patent US12458650B2, “Urination disorder-improving agent” (ASKA Pharmaceutical Co., Ltd., priority 2019, dated 2025).

System: bladder specimen
Experiment: Test Example 3: isometric contraction test of bladder specimen from high-week-old male rats after repeated oral dosing
Format: in vivo, rat
Details: Group A: 10 mg/kg oral once a day, 2 weeks; compared with Group C (dutasteride 0.3 mg/kg); FIG. 9, 10
Text: High-week-old male rats (22-week-old; Charles River Laboratories Japan, Inc.) were examined and evaluated for the relationship between the test substances and the bladder and urethra contraction reaction. Since the rats are high-week-old, the rats are a model in which the prostate is predicted to be enlarged.
A test substance was orally administered to the high-week-old male rats repeatedly at a frequency of once a day over two (2) weeks, and then, from each rat, a bladder specimen was extracted. The bladder specimen was suspended at a resting tension of about 9.8 mN in a constant-temperature Magnus tube (37° C.) filled with a physiological salt solution aerated with 95% O2-5% CO2 gas and was subjected to an isometric contraction test by applying a square-wave electrical field stimulation (EFS, Amplitude; 0.3 ms, Frequency; 1, 2, 5, 10, 20 Hz, Duration; 5 s); or Carbachol (CCH, 100 nmol/L to 100 μmol/L) and KCl (40, 80 mmol/L).
Solvent group (control group): 0.5 v/v % Polysorbate 80 solution, 10 mL/kg (n=6) • Group A: Compound A, 10 mg/kg (n=6) • Group C: Compound C (dutasteride), 0.3 mg/kg (n=6)

For `CC(=O)O[C@]1(C(C)=O)C[C@@H](O)[C@H]2[C@@H]3C=C(Cl)C4=CC(=O)OC[C@]4(C)[C@H]3CC[C@@]21C` [Compound A, 17α-acetoxy-6-chloro-15β-hydroxy-2-oxa-4,6-pregnadiene-3,20-dione], the “bladder contraction tension caused by square-wave electrical field stimulation or Carbachol and KCl” value was “significantly strong or has a strong directionality”.
